From ChEMBL document CHEMBL4257572, “Semisynthesis of ent-norstrobane diterpenoids as potential inhibitor for factor Xa” (Bioorg Med Chem Lett, 2018)

Biological target: Coagulation factor X (Homo sapiens, UniProt P00742)
Test: Inhibition of human coagulation factor 10a using Z-D-Arg-Gly-Arg-pNA.2HCl as substrate preincubated for 15 mins followed by substrate addition by UV absorption assay

Sequence of Coagulation factor X (P00742 41-179 limits assumed): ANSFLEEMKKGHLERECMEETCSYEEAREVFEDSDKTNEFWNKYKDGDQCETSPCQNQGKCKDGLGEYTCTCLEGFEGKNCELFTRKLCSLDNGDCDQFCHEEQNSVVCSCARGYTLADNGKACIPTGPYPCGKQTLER
Sequence of Coagulation factor X (P00742 235-488 limits assumed): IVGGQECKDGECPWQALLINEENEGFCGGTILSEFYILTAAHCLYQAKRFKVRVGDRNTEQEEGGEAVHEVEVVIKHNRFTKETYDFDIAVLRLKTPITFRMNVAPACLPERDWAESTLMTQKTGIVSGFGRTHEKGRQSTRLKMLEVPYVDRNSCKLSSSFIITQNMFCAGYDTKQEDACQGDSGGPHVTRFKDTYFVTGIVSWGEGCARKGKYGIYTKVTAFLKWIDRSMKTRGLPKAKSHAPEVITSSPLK

| SMILES | IC50 |
| --- | --- |
| CC1(C)OCC([C@]2(C)C=C3CC[C@@H]4[C@](C)(CO)C[C@@H](O)C[C@@]4(C)[C@@H]3CC2)O1 (stereo not given in full) | 7.16 µM |
| CC(=O)O[C@@H]1CC[C@@]2(C)[C@@H]3CC[C@](C)(O)CC=C3CC[C@@H]2C1(C)C | 5.73 µM |
| C[C@@]1(CO)C[C@@H](O)C[C@@]2(C)[C@@H]3CC[C@](C)([C@@H](O)CO)C=C3CC[C@H]12 [KIRENOL] | 2.57 µM |
| CC1(C)[C@H](O)CC[C@@]2(C)[C@@H]3CC[C@](C)([C@@H](O)CO)C=C3CC[C@H]12 [DARUTIGENOL] | 11.4 µM |
| CC(=O)OC[C@]1(C)C[C@@H](OC(C)=O)C[C@@]2(C)[C@@H]3CC[C@](C)(CO)C=C3CC[C@H]12 | 1.07 µM |
| CC1(C)OCC([C@]2(C)C=C3CC[C@@H]4C(C)(C)[C@H](O)CC[C@@]4(C)[C@@H]3CC2)O1 (stereo not given in full) | 1.02 µM |
| CC(=O)O[C@@H]1CC[C@@]2(C)[C@@H]3CC[C@](C)([C@@H](O)CO)C=C3CC[C@@H]2C1(C)C | 3.03 µM |
| CC(=O)OC[C@]1(C)C[C@@H](OC(C)=O)C[C@@]2(C)[C@@H]3CC[C@](C)([C@@H](O)CO)C=C3CC[C@H]12 | 5.62 µM |
| CC(=O)O[C@@H]1CC[C@@]2(C)[C@@H]3CC[C@](C)(CO)C=C3CC[C@@H]2C1(C)C | 8.45 µM |
| CC(=O)OC[C@]1(C)C[C@@H](OC(C)=O)C[C@@]2(C)[C@@H]3CC[C@](C)(O)CC=C3CC[C@H]12 | 0.081 µM |
